Data set [1] in a line: logP determination through HPLC (gradient method, acetonitrile/0.1% aqueous phosphoric acid). Format: physicochemical.
For data set [2], the system named is Alternaria solani. Kind of data set: Alternaria test (tomato)/protective. The format is in vivo. The conditions noted are these: tomato plants, protective, applied quantity 750 g/ha, analysis 7 days after inoculation; 100% = no infection. On the procedure:
Alternaria Test (Tomato)/Protective Solvent: 49 parts by weight N,N-dimethyl formamide Emulsifier: 1 part by weight alkyl aryl polyglycolether To produce an effective active ingredient preparation, 1 part by weight active ingredient is mixed with the specified quantities of solvent and emulsifier and the concentrate is diluted using water to the desired concentration. To test for protective activity, young tomato plants are sprayed with the active ingredient preparation in the specified applied quantity. 1 day after the treatment, the plants are inoculated with a spore suspension of Alternaria solani and then stand 24 hours at 100% relative humidity and 20° C. The plants are then stand at 96% relative humidity and a temperature of 20° C. The analysis is performed 7 days after the inoculation. In this case, 0% means an activity which corresponds to that of the control, while an activity of 100% means that no infection is observed.

Results on one compound are retold here after patent US20070179162A1, “Triazolopyrimdines” (priority 2003, published 2007).

With `CC1CCC(c2c(-c3ncncc3Cl)c(Cl)nc3ncnn23)CC1` (centres unmarked) [Example 1, 5-chloro-6-(5-chloro-4-pyrimidinyl)-7-(4-methylcyclohexyl)[1,2,4]triazolo[1,5-a]pyrimidine], the chromatographic logP (in general, a lipophilicity value derived from retention on a column) in data set [1] came out at 3.27. The compound also yielded an activity in data set [2] of 100%.
